Test results from patent publication US7521540B2, “CYR61 compositions and methods” (Munin Corporation, priority 1996, dated 2009).
Values joined by “and” are separate entries in the source; they are usually repeats but may differ in a detail not shown here. Equal entries are not always repeated.

Tests used:
fibroblasts [1] = assay: Adhesion to immobilized peptides or GST-domain fusions, fibroblasts; format: cell-based; conditions: no immobilized Cyr61
Source text: (§1) To further localize domains involved in angiogenesis, including endothelial cell migration, the coding regions for domains I, II and III of Cyr61 were separately fused to a coding sequence for glutathione S-transferase (GST), again using conventional technology. The individual fusion constructs were introduced into bacterial hosts, expressed, and purified with glutathione columns, using conventional techniques.
(§2) To confirm that the TSP1 peptide was inhibiting Cyr61 activity by directly interacting with the α6β1, integrin, TSP1 and the peptides collectively having SEQ ID NOS:34-38 were used in the aforementioned cell adhesion assay in the absence of immobilized Cyr61. In these assays, wells were coated with one of the peptides and the immobilized peptides were then separately exposed to either endothelial cells (resting or activated) or fibroblasts. […] None of the other tested peptides (having SEQ ID NOS:34-38, collectively) supported cell adhesion in these assays. However, it is expected that peptides comprising sequences from domain II (von Willebrand Factor domain) of Cyr61 will inhibit the interaction between Cyr61 and the αVβ3 integrin receptor, thereby inhibiting the participation of endothelial cells in the process of angiogenesis. […]

fibroblasts [2] = assay: Peptide inhibition of cell adhesion to Cyr61, fibroblasts; format: cell-based; conditions: Cyr61-coated wells
Source text: (§3) To localize the relevant domain still further, several overlapping peptides were synthesized. The peptides, each having a sequence set forth in one of SEQ ID NOS:33-38, show significant similarity to an ECM signaling molecule such as mouse Cyr61 (SEQ ID NO:2) or human Cyr61 (SEQ ID NO:4). These peptides were then separately tested for their capacities to inhibit Cyr61 adhesion to endothelial cells or fibroblasts. Peptides were separately added at various concentrations to Cyr61-coated wells containing endothelial cells or fibroblasts, as described above. The peptide designated TSP1 (SEQ ID NO:33) inhibited Cyr61 adhesion to endothelial cells or fibroblasts at concentrations of 25 μM or higher.

endothelial cells [3] = assay: Matrigel tubule formation assay; format: cell-based
Description: Endothelial cells interacting with Cyr61 require integrin αVβ3 for cell migration and cell survival. However, to form tubules in vitro in a matrigel, integrin α6β1 is required. Thus, the ability of TSP1 to inhibit tubule formation in vitro using a matrigel assay as described in Example 15 (and as known in the art, Davis et al., Exp. Cell Research 216:113-123 (1995), incorporated herein by reference in its entirety) was performed.

endothelial cells [4] = assay: Adhesion to immobilized peptides or GST-domain fusions, endothelial cells; format: cell-based; conditions: no immobilized Cyr61
Source text: as §1, §2

endothelial cells [5] = assay: Peptide inhibition of cell adhesion to Cyr61, endothelial cells; format: cell-based
Source text: as §3
To determine if TSP1 was selectively inhibiting Cyr61 binding to […] or α6β1, two integrins found on endothelial cells that bind Cyr61, specific monoclonal antibody blocking studies were performed. These studies involved the separate addition of monoclonal antibody GoH3 (α6-specific, including α6β1; see Example 29) or LM609 ([…]; see Example 29) to cells prior to addition of the mixture to Cyr61-coated wells in the presence or absence of the peptide under study.

[6] = test system: 1064SK primary human foreskin fibroblasts; assay: Fibroblast adhesion assay (methylene blue, A620); format: cell-based
Description: The ability of Cyr61 to mediate cell adhesion in normal fibroblasts was investigated. Microtiter wells were coated with purified recombinant Cyr61 protein, and 1064SK primary human foreskin fibroblasts were allowed to adhere under serum-free conditions. […] 50 μl cell suspensions were plated on microtiter wells coated with varying concentrations (0.5-5.0 μg/ml) of Cyr61 protein. After incubation at 37° C. for 30 minutes, adherent cells were fixed and stained with methylene blue.
In another experiment, microtiter wells were coated with either BSA, Cyr61 (2 μg/ml), or vitronectin (VN; 0.5 μg/ml) and blocked with affinity-purified anti-Cyr61 antibodies for one hour at 37° C. before 1064SK cells were plated.
The effects of divalent cations in cell adhesion to Cyr61 was also investigated. […] Data are means from triplicate determinations. […] Inhibition by Ca^2+ is characteristic of adhesion through some members of the β1 family of integrins, including receptors that bind type I collagen, laminin, and vitronectin (integrins α2β1, α6β1, and αVβ1) in fibroblasts, as well as the lymphocyte-specific integrin αLβ2.
The effects of RGD peptides on Cyr61-mediated fibroblast binding was tested by plating cells in wells coated with Cyr61 (2 μg/ml). Type I collagen (2 μg/ml) or vitronectin (0.5 μg/ml), 2 mM GRGDSP or GRGESP peptide was then added.
Cells were also pre-incubated with 40 μg/ml monoclonal antibodies against the integrin α5 or the integrin αV subunits at room temperature for 30 minutes, then plated on wells coated with Cyr61 (2 μg/ml), vitronectin (0.5 μg/ml) or fibronectin (FN, 1 μg/ml). […] The data are means, representative of three experiments.
The 1064 SK cells were also analyzed using the monoclonal antibody JBIA, which binds the β1 integrin subunit. Cells were pre-incubated with the antibody (50 μg/ml) before plating on microtiter wells coated with Cyr61 (2 μg/ml), Type I collagen (2 μg/ml), or vitronectin (0.5 μg/ml). […] Data are means, representative of three experiments.
To identify the specific β1 integrin that mediates fibroblast adhesion to Cyr61, the inhibitory effects of function-blocking monoclonal antibodies were tested against various integrin α subunits. […] The data are means, representative of at least three experiments.

HUVE cells = assay: HUVE cell attachment to murine Cyr61-coated plates; format: cell-based, human
Description: Another embodiment of the invention is directed to the use of Cyr61 to mediate cellular attachment to the extracellular matrix. Induction of cellular adhesion was investigated using murine Cyr61, fibronectin, and bovine serum albumin (BSA). Immunological 96-well plates (Falcon brand) were coated with 50 μl of 0.1% BSA in PBS at 4° C. in the presence of 0-30 μg/ml concentrations of murine Cyr61 or fibronectin. After two hours exposure to the coating solution, non-diluted immune or pre-immune antisera (30 μl/well), or affinity-purified anti-Cyr61 antibodies were added. For some wells, the coating mixture was adjusted to 10 mM DTT or 100 mM HCl. After 16 hours incubation, the coating solution was removed and the well surface was blocked with 1% BSA in phosphate-buffered saline (PBS) for 1 hour at room temperature. HUVE cells were plated in Ham's complete F12K medium [GIBCO-BRL, Inc.; Ham, Proc. Natl. Acacd. Sci. (USA) 53:786 (1965)] at 5×10^3-10^4 cells/well. Cycloheximide was added to 100 μg/ml immediately before plating and monensin was added to 1 μM 14 hours before plating. After a 2-hour incubation at 37° C., the wells were washed with PBS and attached cells were fixed and stained with methylene blue. The attachment efficiency was determined by quantitative dye extraction and measurement of the extract absorbance at 650 nm. Oliver et al., J. Cell. Sci. 92:513-518 (1989).

endothelial cells [7] = conditions: thrombospondin on endothelial cells; fibronectin cell type not stated; cited from earlier work
Limb mesenchymal cells [8] = assay: Limb bud mesenchymal cell attachment; format: cell-based, mouse; conditions: within 1 hour of plating
Description: Cyr61, fibronectin (Gibco), or tenascin (Gibco) were diluted in 0.1% protease-free bovine serum albumin (BSA) in PBS with 0.5 mM PMSF, to a final concentrations of 10 or 50 μg/ml. A 10 μl drop/well was placed in a non-tissue culture treated 24-well plate (Corning), and incubated at room temperature for 2 hours. The wells were blocked with 1% BSA in PBS for 1 hour at room temperature, and rinsed with serum-free MEM (Modified Eagle's Medium). Limb mesenchymal cells, suspended at 5×10^5 cell/ml in serum-free MEM, were added at a volume of 400 μl/well, and incubated at 37° C., 5% CO2 for 1 or 3 hours. At each time point, the cell suspension was removed, the wells were rinsed with MEM and the remaining adherent cells were photographed.

[9] = test system: Bovine aortic smooth muscle cells (BASM cells); assay: Smooth muscle cell adhesion assay; format: cell-based
Description: Cell adhesion assays were also performed on smooth muscle cells. Bovine aortic smooth muscle cells (BASM cells) were subjected to the cell adhesion assay described above in the context of assaying fibroblasts. […] To identify particular integrin, receptors mediating the Cyr61 induction of BASM cell adhesion, antibody studies were conducted using anti-integrin antibodies recognizing specific integrins. […] Thus, integrin α6β1 mediates Cyr61-induced adhesion of smooth muscle cells. It is expected that Cyr61 polypeptides that include the heparan binding domain IV will induce adhesion of any mammalian smooth muscle cell.

Limb mesenchymal cells [10] = conditions: 10 μg/ml, literature; cited from earlier work

H 2N-GQKCIVQTTSWSQCSKS-CO2H (H-GQKCIVQTTSWSQCSKS-OH; cysteine pairing not given here) [TSP1]
adhesion of fibroblasts to immobilized peptide or fusion (fibroblasts [1]): supported adhesion of endothelial cells and fibroblasts | concentration inhibiting Cyr61 adhesion to fibroblasts (fibroblasts [2]): ≥ 25 µM | tubule formation in matrigel (endothelial cells [3]): inhibited tubule formation | adhesion of endothelial cells to immobilized peptide or fusion (endothelial cells [4]): supported adhesion of endothelial cells and fibroblasts | concentration inhibiting Cyr61 adhesion to endothelial cells (endothelial cells [5]; Cyr61-coated wells): ≥ 25 µM | effect on Cyr61 binding to the α6β1 integrin (endothelial cells [5]; GoH3/LM609 blocking studies): inhibitied Cyr61 binding to the α6β1 integrin | effect on Cyr61 binding to αVβ3 (endothelial cells [5]; GoH3/LM609 blocking studies): did not inhibit Cyr61 binding to αVβ3

fibronectin
1064SK adhesion to coated protein, nothing added ([6]; Cyr61 2, VN 0.5, Type I collagen 2, fibronectin 1, laminin 5 μg/ml): 0.72 A620 and 0.74 A620 | HUVE cell attachment, A650 (HUVE cells; coating 1 μg/ml): 0.1 A650 | HUVE cell attachment, A650 (HUVE cells; coating 30 μg/ml): 0.9 A650 | concentration with chemotactic effect (endothelial cells [7]): 1 to 30 µg/mL | attachment morphology of limb mesenchymal cells (Limb mesenchymal cells [8]): attached uniformly and started to spread

heparin
levels having no effect on cell adhesion to fibronectin ([6]; fibronectin 1 μg/ml): up to 1000 μg/ml | level completely inhibiting cell adhesion to Cyr61 ([6]; soluble, in cell suspension): ≥ 0.1 µg/mL | level that detectably inhibited binding to Cyr61 ([6]; soluble, in cell suspension): 1 ng/mL | effect of agent on Cyr61-induced BASM cell adhesion [9]: inhibited Cyr61-induced adhesion | increase of chondrogenesis in micromass cultures (Limb mesenchymal cells [10]): 2 fold
